Each compound was assayed against T1, aldolase A (Homo sapiens, UniProt P04075) (assay: Activity assay at protein level: aldolase-catalyzed degradation of fructose-1,6-biphosphate, coupled triose phosphate isomerase/glycerol-3-phosphate dehydrogenase method). Details: test concentration of compound 100 μM, FBP 500 μM, 37° C., read-out: Inhibition rate (%) of aldolase activity.
T1 sequence (P04075 1-364): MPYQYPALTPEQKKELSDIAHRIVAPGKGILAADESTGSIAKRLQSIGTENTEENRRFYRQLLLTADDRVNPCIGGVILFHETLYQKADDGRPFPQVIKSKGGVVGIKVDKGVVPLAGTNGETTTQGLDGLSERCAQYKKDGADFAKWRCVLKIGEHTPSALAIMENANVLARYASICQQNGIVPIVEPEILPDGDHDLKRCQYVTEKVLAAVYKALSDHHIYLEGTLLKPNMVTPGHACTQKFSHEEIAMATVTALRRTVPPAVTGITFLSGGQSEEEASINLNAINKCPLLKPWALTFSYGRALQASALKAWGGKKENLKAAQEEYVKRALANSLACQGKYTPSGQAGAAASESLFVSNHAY
Format: biochemical
Experimental: The inhibition on aldolase activity of a compound was evaluated by its inhibition on the rate of aldolase-catalyzed degradation of the substrate fructose-1,6-biphosphate (FBP). Method for conjugation of triose phosphate isomerase/glycerol-3-phosphate dehydrogenase [Racker, E. (1952) J. Biol. Chem. 196, 347-351] was specifically used for biochemical activity assay (Table 3).
The specific method was as follows:
(1) About 250 ng of aldolase A was dissolved in 30 μL of water, added to the bottom of a 96-well plate of quartz, and a compound (dissolved in DMSO, not exceeding 1% of the total reaction volume) was added to the aldolase A solution, followed by shaking and mixing, and incubation for 30 min at room temperature; […]
(2) 70 μL of an enzyme reaction system (its formulation was given below) was added, and immediately put into a microplate reader (SpectraMax M5, Molecular Devices), to carry out reaction at 37° C. At the same time, the absorbance at 340 nm was measured every 30 s, and a total of 61 absorbance values were obtained for each well. The absorbance value linearly changed with time, and the slope was the enzyme activity of aldolase in the well. The specific value was calculated by SoftMax Pro 5.4.1; […]
a. enzyme reaction buffer (50 mM TEA-HCl, pH 7.4, 10 mM EDTA) […]
d. triose phosphate isomerase (about 20 U) e. glycerol-3-phosphate dehydrogenase (about 2 U)
(3) Two parallel experiments were set for each group, with DMSO having a final concentration of 1% as the blank control, and the final concentration of compound being 100 μM.

Point of comparison: `CCn1cc[n+](Cc2c(Cl)cccc2Cl)c1C` [IA-7], inhibition at 100 µM 88.4%. Against it:
- CCCn1cc[n+](Cc2cc(F)ccc2OC)c1C [IA-10] — lower, 0.06%
- CCn1cc[n+](Cc2cc(F)ccc2OC)c1C [IA-6] — lower, 83.4%
- Cc1n(C(C)C)cc[n+]1Cc1c(Cl)cccc1Cl [IA-14] — lower, 5.06%
- CCCCCCCCCCCCCCCCn1c(C)[n+](Cc2c(F)cccc2Cl)c2ccccc21 [IIA-1] — lower, 49.9%

— patent publication US11584722B2, “Substituted imidazole salt compounds, preparation method thereof, pharmaceutical composition thereof and application thereof” (Xiamen Vivohealths Technology Co., Ltd., priority 2017, dated 2023)
